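Exposure lasted 48 hours, with cells grown in 96-well plates and compounds tested at five concentrations. Here, GI50 denotes the concentration required for 50% inhibition of growth. TGI: total growth inhibition.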
Experiments:
Test in all cases: DTP human tumour cell line panel, 48 h
K-562 leukemia = test system: K-562 leukemia
SNB-19 CNS = test system: SNB-19 CNS
OVCAR-3 ovarian = test system: OVCAR-3 ovarian
HOP-62 NSCLC = test system: HOP-62 NSCLC
OVCAR-4 ovarian = test system: OVCAR-4 ovarian
KM12 colon = test system: KM12 colon
HOP-92 NSCLC = test system: HOP-92 NSCLC
DU-145 prostate = test system: DU-145 prostate
NCI/ADR-RES ovarian = test system: NCI/ADR-RES ovarian
PC-3 prostate = test system: PC-3 prostate

Row | Compound | TGI (K-562 leukemia) [µM] | TGI (SNB-19 CNS) [µM] | TGI (OVCAR-3 ovarian) [µM] | TGI (HOP-62 NSCLC) [µM] | TGI (OVCAR-4 ovarian) [µM] | TGI (KM12 colon) [µM] | TGI (HOP-92 NSCLC) [µM] | GI50 (DU-145 prostate) [µM] | TGI (DU-145 prostate) [µM] | GI50 (K-562 leukemia) [µM] | GI50 (SNB-19 CNS) [µM] | GI50 (HOP-62 NSCLC) [µM] | GI50 (OVCAR-4 ovarian) [µM] | GI50 (KM12 colon) [µM] | GI50 (NCI/ADR-RES ovarian) [µM] | TGI (NCI/ADR-RES ovarian) [µM] | GI50 (HOP-92 NSCLC) [µM] | GI50 (PC-3 prostate) [µM] | TGI (PC-3 prostate) [µM] | GI50 (OVCAR-3 ovarian) [µM]
1 | C=C(CO)CC(O)c1ccccc1 (configuration not stated) | > 100 | > 100 | > 100 | > 100 | > 100 | > 100 | > 100 | – | – | – | – | – | – | – | – | – | – | – | – | –
2 | COC1OC(C)C(OC(=O)C(C)(C)C)C(C)(O)C1O (configuration not stated) | > 100 | > 100 | > 100 | > 100 | > 100 | > 100 | > 100 | – | – | – | – | – | – | – | – | – | – | – | – | –
3 | O=C(C#Cc1c[nH]c(=O)[nH]c1=O)c1ccccc1 | 14.4 | 32 | 5.99 | 36.1 | 27.1 | 29 | 27 | – | – | – | – | – | – | – | – | – | – | – | – | –
4 | CN(C)CC1(C)CC/C(=C\c2ccc3c(c2)OCO3)C1=O (configuration not stated) | > 100 | > 100 | > 100 | > 100 | > 100 | > 100 | > 100 | – | – | – | – | – | – | – | – | – | – | – | – | –
5 | O=C(N/N=C/c1cc2ccccc2c2ccccc12)c1cc(O)c(O)c(O)c1 | 51 | 18.7 | – | 12.4 | 35.8 | 22.9 | 7.19 | 5.79 | 27 | 3.57 | 3.6 | 3.37 | 2.38 | 8.24 | 12.4 | > 100 | 2.1 | 3.28 | 15.6 | –
6 | CC(C)OCN1COCN=C1NC#N | > 100 | > 100 | > 100 | > 100 | > 100 | > 100 | > 100 | – | – | – | – | – | – | – | – | – | – | – | – | –
7 | COC(=O)/C(=C/N1CCN(C(=O)c2ccco2)C1=S)C(C)=O | > 100 | 94.8 | 11.6 | 42.8 | 42.9 | 9.78 | 75.4 | – | – | 10.2 | 41.7 | 20.6 | 17.4 | 3.04 | 22.2 | 56.8 | 20.8 | 18.1 | > 100 | 2.67
8 | C=C(C)C1CC[C@]2(C(=O)O)CCC3(C)[C@H](CCC4[C@@]5(C)CC[C@H](OC6OC(CO)C(O)C6OC6OC(C)C(O)C(O)C6O)[C@@](C)(CO)C5CC[C@]43C)C12 (some centres not stated) | > 100 | > 100 | > 100 | > 100 | > 100 | > 100 | – | – | – | – | – | – | – | – | – | – | – | – | – | –
9 | CC(NC1CCC[C@H]1O)c1ccccc1 (mixture of isomers) | > 100 | > 100 | > 100 | > 100 | > 100 | > 100 | > 100 | – | – | – | – | – | – | – | – | – | – | – | – | –
10 | CN/N=C(\C)CC(=O)Nc1cccc(Cl)c1C | > 100 | > 100 | > 100 | > 100 | > 100 | > 100 | > 100 | – | – | – | – | – | – | – | – | – | – | – | – | –
11 | COCCN1C2=CCCCC2=Nc2c(N)nc(N)nc21 | > 100 | > 100 | 77.7 | > 100 | – | > 100 | > 100 | – | – | – | – | – | – | – | – | – | – | – | – | –
12 | O=C(O)C1Cc2nc[nH]c2CN1 (configuration not stated) | > 100 | > 100 | > 100 | – | > 100 | > 100 | > 100 | – | – | – | – | – | – | – | – | – | – | – | – | –
13 | O=C1C=C(Br)C(=O)C(Br)=C1 | > 100 | > 100 | > 100 | > 100 | > 100 | > 100 | > 100 | – | – | – | – | – | – | – | – | – | – | – | – | –
14 | CC(=O)N1c2ccccc2C23CCN4CC5=CCOC(O)C(C5CC42)C13 (configuration not stated) | > 100 | > 100 | > 100 | – | > 100 | > 100 | > 100 | – | > 100 | – | – | – | – | – | – | > 100 | – | – | > 100 | –
15 | Cc1cccc(NC(=O)CC2C(=O)Nc3ccccc3S2(=O)=O)c1C (configuration not stated) | > 100 | > 100 | 61.2 | 52.8 | 32.1 | > 100 | 37.9 | – | – | – | – | – | – | – | – | – | – | – | – | –
16 | COc1ccc(-c2c(N)[n+]([O-])c3cc(C)c(C)cc3[n+]2[O-])cc1OC | > 100 | > 100 | > 100 | > 100 | > 100 | > 100 | – | – | – | – | – | – | – | – | – | – | – | – | – | –
17 | COc1cc(C2C(C(=O)O)=C(C)Oc3cc4c(cc32)OCO4)cc(OC)c1OC (configuration not stated) | > 100 | > 100 | 48.1 | – | > 100 | – | > 100 | – | – | – | – | – | – | – | – | – | – | – | – | –
18 | CCCCCN(CCCCC)C(=O)[C@@H](CCC(=O)OCc1ccccc1)NC(=O)c1cc2ccccc2[nH]1 | > 100 | > 100 | > 100 | > 100 | > 100 | > 100 | > 100 | – | – | – | – | – | – | – | – | – | – | – | – | –
19 | Fc1cccc(F)c1C1SCc2nc3ccccc3n21 (configuration not stated) | > 100 | > 100 | > 100 | > 100 | > 100 | > 100 | 95.3 | – | – | – | – | – | – | – | – | – | – | – | – | –
20 | COC(=O)C(C(=O)C(=O)Nc1ccccc1OC)c1csc(-n2nc(-c3ccccc3)cc2-c2ccccc2)n1 (configuration not stated) | > 100 | > 100 | > 100 | > 100 | > 100 | > 100 | > 100 | – | – | – | – | – | – | – | – | – | – | – | – | –
21 | COc1ccc(/C=N/NC(=O)O)cc1 | > 100 | > 100 | > 100 | > 100 | > 100 | > 100 | – | – | > 100 | – | – | – | – | – | – | > 100 | – | – | > 100 | –
22 | O=S(=O)(Nc1ccc(Cl)c(C(F)(F)F)c1)c1ccc(-c2cnc(C3CC3)o2)cc1 | > 100 | – | 1.9 | 4.88 | 9.75 | 7.36 | 4.16 | 1.28 | 10.6 | 0.117 | – | 0.615 | 1.63 | 0.187 | 0.163 | 2.43 | 1.04 | 0.713 | 6.59 | 0.0393
23 | CC1=COC2=C(C)C(=O)C(=O)c3c(C)ccc1c32 | > 100 | > 40.5 | – | > 36.9 | 13.5 | 26.4 | 39.9 | – | 20.3 | – | – | – | – | – | – | 7.87 | – | – | 22.5 | –
24 | COc1ccc(OC)c(CCc2cc(OC)c(OC)cc2C)c1 | > 100 | > 100 | > 100 | > 100 | > 100 | > 100 | – | – | – | – | – | – | – | – | – | – | – | – | – | –
25 | CC1CC(=O)C(C(O)CC2CC(=O)N(c3ccccc3)C(=O)C2)C(C)C1 (configuration not stated) | > 100 | > 100 | > 100 | > 100 | > 100 | > 100 | > 100 | – | – | – | – | – | – | – | – | – | – | – | – | –

Reference: PubChem BioAssay (NCI)
